Common to all, as to format: biochemical
One assay concerns the target T1, Zap70 (Homo sapiens, UniProt P43403).
T1 construct: P1868.pFastBac1 ZAP70 D327-G606 HIS, WT; His7 (HHHHHHH) (C); made in house
T1 sequence (P43403 with tags, fused parts or gaps): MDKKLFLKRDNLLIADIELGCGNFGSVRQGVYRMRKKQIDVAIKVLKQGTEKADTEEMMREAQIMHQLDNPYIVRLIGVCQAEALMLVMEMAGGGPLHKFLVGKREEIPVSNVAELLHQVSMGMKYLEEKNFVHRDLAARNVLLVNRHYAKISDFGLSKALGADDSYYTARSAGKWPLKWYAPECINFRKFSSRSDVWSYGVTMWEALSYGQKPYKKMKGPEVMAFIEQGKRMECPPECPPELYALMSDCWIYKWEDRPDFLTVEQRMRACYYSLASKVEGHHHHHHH
In words: AlphaScreen kinase assay, Zap70. The conditions noted are these: read-out: IC50, activity toward kinase Zap70. In short, it runs like this:
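Emission from acceptor beads reports phosphorylated biotin-peptide bridging antibody-coated acceptor and streptavidin donor beads; loss of signal reflects kinase inhibition. Eight-point, threefold dilution series prepared from 20 mM DMSO stocks.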

The next assay has as its target IGF1R (Homo sapiens, UniProt P08069). Description: AlphaScreen kinase assay, IGF1R. The conditions noted are these: read-out: IC50, activity toward kinase IGF1R. (In general: In Alpha technology, singlet oxygen from a donor bead excites a nearby acceptor bead.)
A further assay addresses Hck (Homo sapiens, UniProt P08631). Description: AlphaScreen kinase assay, Hck. The conditions noted are these: read-out: IC50, activity toward kinase Hck. An excerpt: AlphaScreen assay was used to screen additional kinases. The assay is similarly dependent on the phosphorylation of a peptide substrate. In this assay, an antibody that recognizes phosphorylated substrate is bound to an acceptor bead. The peptide substrate is attached to biotin, which binds to a donor head that contains streptavidin. Thus phosphorylated substrate is bound by antibody and streptavidin, bringing the donor and acceptor heads into close proximity when kinase is not inhibited. The donor produces singlet oxygen which results in emission from the acceptor when they are in close proximity. Conversely, when kinase is inhibited, the donor and acceptor beads are not associated and the emission from the acceptor is reduced.
AlphaScreen assays were done using compounds dissolved in DMSO to a concentration of 20 mM. The compounds were diluted accordingly to the desired final concentrations in each sample well, using 1:3 serial dilution for a total of 8 concentration points.

In a further assay the target is T2, Flt3 (Homo sapiens, UniProt P36888).
T2 construct: purchased Invitrogen (assay run by Invitrogen)
T2 sequence (P36888 27-993): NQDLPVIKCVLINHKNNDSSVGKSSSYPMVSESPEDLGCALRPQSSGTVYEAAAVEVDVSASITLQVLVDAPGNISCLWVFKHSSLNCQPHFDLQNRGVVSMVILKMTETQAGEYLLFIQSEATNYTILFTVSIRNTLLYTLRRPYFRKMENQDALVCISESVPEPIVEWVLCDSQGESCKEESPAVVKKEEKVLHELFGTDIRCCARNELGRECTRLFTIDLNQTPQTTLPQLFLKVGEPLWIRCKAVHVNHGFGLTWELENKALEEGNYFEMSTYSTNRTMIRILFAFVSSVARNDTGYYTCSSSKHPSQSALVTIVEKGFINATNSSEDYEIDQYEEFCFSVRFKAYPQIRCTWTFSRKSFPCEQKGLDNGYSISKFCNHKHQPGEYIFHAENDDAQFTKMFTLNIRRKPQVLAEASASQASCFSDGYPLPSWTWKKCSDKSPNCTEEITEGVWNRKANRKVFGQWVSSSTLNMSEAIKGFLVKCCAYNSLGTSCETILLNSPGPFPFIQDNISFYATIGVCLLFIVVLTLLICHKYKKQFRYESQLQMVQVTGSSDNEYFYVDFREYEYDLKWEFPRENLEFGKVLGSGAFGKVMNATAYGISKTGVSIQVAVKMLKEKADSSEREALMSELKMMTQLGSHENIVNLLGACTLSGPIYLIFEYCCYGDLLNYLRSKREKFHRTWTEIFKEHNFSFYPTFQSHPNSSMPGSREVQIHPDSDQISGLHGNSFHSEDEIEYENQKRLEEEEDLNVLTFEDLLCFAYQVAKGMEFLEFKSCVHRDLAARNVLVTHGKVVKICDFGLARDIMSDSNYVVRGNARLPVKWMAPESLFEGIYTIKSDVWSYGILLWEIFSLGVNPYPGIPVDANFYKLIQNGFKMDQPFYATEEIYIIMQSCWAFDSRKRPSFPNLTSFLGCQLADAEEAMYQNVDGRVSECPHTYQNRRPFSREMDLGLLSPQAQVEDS
In words: Z'-Lyte FRET kinase assay (Invitrogen), Flt3. Conditions: read-out: IC50, activity toward kinase Flt3. The text has this: The effect of potential modulators of kinase activity can be measured in a variety of different assays known in the art. For example, direct radiometric, indirect FRET or AlphaScreen assays may be used to assess the level of phosphorylation of a substrate in the presence of test compounds in order to determine the inhibitory affect of the compound on the kinase. Invitrogen (Carlsbad, Calif.) uses a FRET based assay for Btk, EGFR, EphB2, Flt3, lrak4, Kdr, MAP2K1, MAPKAPK2, PDGFRB, PKC theta, Stk6 and Yes. For these assays, compounds of the invention were screened by Invitrogen using Z′-Lyte™ kinase assay.
Briefly, the Invitrogen kinase assay involves use of a specific peptide substrate optimized for each kinase, containing a fluorophore at each end that make up the FRET pair. The peptide sensitivity to proteolytic cleavage depends on phosphorylation of the peptide. Non-phosphorylated peptide is cleaved by a protease while peptide phosphorylated by the kinase is not cleaved. Cleavage of the peptide disrupts the FRET between the donor (coumarin) and acceptor (fluorescein) fluorophores, resulting in an increase in the ratio of donor emission to acceptor emission. The emission ratio of coumarin to fluorescein is used to assess the reaction progress. The extent of phosphorylation is determined from the emission ratio, which is low when the kinase is active (phosphorylated peptide is not cleaved, FRET pair connected) or higher for inhibited kinase (non-phosphorylated peptide is cleaved, FRET pair separated). Thus, the assay involves a kinase reaction in the presence of varying concentrations of a given compound, a development reaction with site specific protease, and detection of the fluorescent emission ratio of coumarin and fluorscein. […] Reaction conditions for each kinase are determined to provide optimal reaction times, incubation temperature, kinase and ATP concentrations. Test samples are made up in 1× kinase buffer (50 mM HEPES pH 7.5, 50 mM MgCl2, 5 mM EGTA, 0.05% BRIJ-35) and compound at desired concentration prepared in DMSO such that the final DMSO is 1%. […] Typically, assay plates are prepared to 10 μl final volume per sample, adding 2.5 μl of compound at 4× the desired concentration in 4% DMSO (serial dilution of compound provides concentration curve), 5 μl of the desired kinase mixed with Z′-LYTE™ peptide substrate (2× in 2× kinase buffer, final peptide at 2 μM), and 2.5 μl of 4×ATP solution. All kinase except for MAP2K1 were at 10 μM ATP in the kinase reaction, while MAP2K1 was at 100 μM. Samples are mixed and the kinase reaction is incubated 1 hour at room temperature, after which 5 μl of development solution is added and mixed. After incubation for another 1 hour at room temperature, 5 μl of stop reagent is added to each sample and mixed. The fluorescence signals are measured to determine the emission ratio.

The values below come from US8415469B2, “Compounds and methods for kinase modulation, and indications therefor” (Plexxikon Inc., priority 2005, dated 2013).

Usually IC50 stands for the point on the concentration scale where inhibition reaches its midpoint.

Sequence of Hck (P08631 whole entry): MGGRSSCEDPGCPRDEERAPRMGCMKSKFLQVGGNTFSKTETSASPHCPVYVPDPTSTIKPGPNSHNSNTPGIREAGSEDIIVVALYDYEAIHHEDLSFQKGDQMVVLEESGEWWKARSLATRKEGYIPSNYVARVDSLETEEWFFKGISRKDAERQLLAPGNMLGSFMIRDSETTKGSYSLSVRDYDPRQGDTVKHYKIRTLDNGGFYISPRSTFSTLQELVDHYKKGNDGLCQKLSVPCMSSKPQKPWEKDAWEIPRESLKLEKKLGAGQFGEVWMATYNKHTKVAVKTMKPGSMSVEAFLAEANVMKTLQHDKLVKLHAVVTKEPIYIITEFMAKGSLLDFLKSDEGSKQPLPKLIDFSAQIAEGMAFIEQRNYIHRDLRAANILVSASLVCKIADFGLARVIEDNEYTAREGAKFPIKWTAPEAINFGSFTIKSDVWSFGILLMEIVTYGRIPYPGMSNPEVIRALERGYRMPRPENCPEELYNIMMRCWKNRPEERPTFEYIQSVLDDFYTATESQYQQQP
Sequence of IGF1R (P08069 31-1367): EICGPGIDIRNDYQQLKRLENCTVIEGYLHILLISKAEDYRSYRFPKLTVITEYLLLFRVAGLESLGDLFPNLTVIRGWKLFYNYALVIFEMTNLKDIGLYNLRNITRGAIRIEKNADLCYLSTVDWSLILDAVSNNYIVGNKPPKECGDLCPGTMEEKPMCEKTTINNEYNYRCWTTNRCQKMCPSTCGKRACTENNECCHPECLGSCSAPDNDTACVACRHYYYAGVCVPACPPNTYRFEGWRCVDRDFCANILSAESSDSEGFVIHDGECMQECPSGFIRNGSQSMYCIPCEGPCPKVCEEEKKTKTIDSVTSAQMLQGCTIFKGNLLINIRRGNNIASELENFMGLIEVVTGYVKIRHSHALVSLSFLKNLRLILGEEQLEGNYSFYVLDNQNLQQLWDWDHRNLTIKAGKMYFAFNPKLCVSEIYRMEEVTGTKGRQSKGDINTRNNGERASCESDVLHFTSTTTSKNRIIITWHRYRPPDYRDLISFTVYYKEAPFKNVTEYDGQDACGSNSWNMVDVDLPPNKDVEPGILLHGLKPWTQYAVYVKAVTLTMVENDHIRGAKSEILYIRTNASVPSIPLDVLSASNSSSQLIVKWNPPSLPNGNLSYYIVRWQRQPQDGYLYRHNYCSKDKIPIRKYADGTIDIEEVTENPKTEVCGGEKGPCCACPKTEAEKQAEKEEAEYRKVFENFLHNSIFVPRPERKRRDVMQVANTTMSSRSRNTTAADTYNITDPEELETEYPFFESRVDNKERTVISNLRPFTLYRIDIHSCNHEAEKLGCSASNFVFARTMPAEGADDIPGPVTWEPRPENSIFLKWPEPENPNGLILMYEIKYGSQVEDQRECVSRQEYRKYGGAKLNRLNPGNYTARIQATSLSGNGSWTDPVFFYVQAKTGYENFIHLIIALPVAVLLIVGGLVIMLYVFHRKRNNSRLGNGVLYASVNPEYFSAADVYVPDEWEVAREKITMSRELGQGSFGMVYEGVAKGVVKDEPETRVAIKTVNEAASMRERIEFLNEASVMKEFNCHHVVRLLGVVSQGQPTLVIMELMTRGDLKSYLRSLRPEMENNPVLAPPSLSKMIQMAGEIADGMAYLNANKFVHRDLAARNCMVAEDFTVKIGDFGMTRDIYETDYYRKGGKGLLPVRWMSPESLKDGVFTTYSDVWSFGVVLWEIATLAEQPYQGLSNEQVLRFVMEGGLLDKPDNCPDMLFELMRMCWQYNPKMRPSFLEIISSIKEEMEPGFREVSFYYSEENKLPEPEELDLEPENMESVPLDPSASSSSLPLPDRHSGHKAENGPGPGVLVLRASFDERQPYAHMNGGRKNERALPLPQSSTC

With `CC(=O)Nc1cccc(-c2cnc3[nH]cc(C(=O)c4cc(O)ccc4F)c3c2)c1` [Compound P-0001], the IC50 on Zap70 is not above 10 µM.

As for `Nc1cccc(-c2cnc3[nH]cc(C(=O)c4cc(O)ccc4F)c3c2)c1` [Compound P-0002], at IGF1R, the IC50 was not above 10 µM.

As for `Nc1cccc(-c2cnc3[nH]cc(C(=O)c4cccc(O)c4)c3c2)c1` [Compound P-0003], the IC50 on IGF1R was not above 10 µM.

`Nc1cccc(-c2cnc3[nH]cc(C(=O)c4cccc(O)c4F)c3c2)c1` [Compound P-0004, [5-(3-amino-phenyl)-1H-pyrrolo[2,3-b]pyridin-3-yl]-(2-fluoro-3-hydroxy-phenyl)methanone]: the IC50 on Zap70 and at IGF1R was not above 10 µM throughout.

As to `CCCS(=O)(=O)Nc1ccc(F)c(C(=O)c2c[nH]c3ncccc23)c1F` [Compound P-0007, Propane-1-sulfonic acid [2,4-difluoro-3-(1H-pyrrolo[2,3-b]pyridine-3-carbonyl)-phenyl]-amide], the half-inhibitory concentration (IC50) at Hck is not above 10 µM.

For the compound `Oc1ccc(F)c(C(O)c2c[nH]c3ncc(-c4cccnc4)cc23)c1F` (centres unmarked) [Compound P-0009, 2,4-difluoro-3-[hydroxy-(5-pyridin-3-yl-1H-pyrrolo[2,3-b]pyridin-3-yl)-methyl]-phenol], the IC50 at IGF1R is not above 10 µM.

As for `COc1ccc(C(=O)c2c[nH]c3ncc(-c4cccc(/C=C/C(=O)O)c4)cc23)c(Cl)c1` [Compound P-0015], at Zap70, the half-inhibitory concentration (IC50) was not above 10 µM.

`O=C(c1cc(O)ccc1F)c1c[nH]c2ncc(-c3cccs3)cc12` [Compound P-0032]: the IC50 at Zap70 is not above 10 µM.

Turning to `O=C(O)/C=C/c1cccc(-c2cnc3[nH]cc(C(=O)c4ccccc4F)c3c2)c1` [Compound P-0033], the concentration for half-maximal inhibition (IC50) on Zap70 is not above 10 µM.

As for `NC(=O)c1cccc(-c2cnc3[nH]cc(C(=O)c4cccc(O)c4F)c3c2)c1` [Compound P-0034, 3-[3-(2-Fluoro-3-hydroxy-benzoyl)-1H-pyrrolo[2,3-b]pyridin-5-yl]benzamide], the IC50 on Zap70 was not above 10 µM.

Regarding `CC(=O)Nc1cccc(-c2cnc3[nH]cc(C(=O)c4cccc(O)c4F)c3c2)c1` [Compound P-0035, N-{3-[3-(2-Fluoro-3-hydroxy-benzoyl)-1H-pyrrolo[2,3-b]pyridin-5-yl]-phenyl}-acetamide], the 50% inhibitory concentration (IC50) on Zap70 is not above 10 µM.

For the compound `CS(=O)(=O)Nc1cccc(-c2cnc3[nH]cc(C(=O)c4cccc(O)c4F)c3c2)c1` [Compound P-0038, N-{3-[3-(2-Fluoro-3-hydroxy-benzoyl)-1H-pyrrolo[2,3-b]pyridin-5-yl]-phenyl}-methanesulfonamide], the IC50 at Zap70 is not above 10 µM.

On to `Cc1ccc(F)cc1C(=O)c1c[nH]c2ncc(-c3cccc(N)c3)cc12` [Compound P-0040], for which the IC50 on Zap70 was not above 10 µM.

For the compound `Cn1cc(C(F)(F)F)c(-c2ccc(S(=O)(=O)NCc3c[nH]c4ncccc34)s2)n1` [Compound P-0041], at Zap70, the half-maximal inhibitory concentration (IC50) is not above 10 µM.

In the case of `Cc1ccc(S(=O)(=O)NCc2c[nH]c3ncccc23)cc1` [Compound P-0058], the IC50 at Zap70 is not above 10 µM.

As for `CCCS(=O)(=O)Nc1ccc(F)c(C(=O)c2c[nH]c3ncc(-c4cccnc4)cc23)c1F` [Compound P-0088, Propane-1-sulfonic acid [2,4-difluoro-3-(5-pyridin-3-yl-1H-pyrrolo[2,3-b]pyridine-3-carbonyl)-phenyl]-amide], the half-inhibitory concentration (IC50) on Flt3 is not above 10 µM.

Take `O=C(Nc1ccc(Cc2c[nH]c3ncccc23)cc1)Nc1cccc(C(F)(F)F)c1` [Compound P-0262, 1-[4-(1H-Pyrrolo[2,3-b]pyridin-3-ylmethyl)-phenyl]-3-(3-trifluoromethyl-phenyl)-urea]: the half-inhibitory concentration (IC50) at Flt3 was not above 10 µM.

`CCCS(=O)(=O)Nc1ccc(F)c(C(=O)c2c[nH]c3ncc(-c4ccccc4)cc23)c1F` [Compound P-0636, Propane-1-sulfonic acid [2,4-difluoro-3-(5-phenyl-1H-pyrrolo[2,3-b]pyridine-3-carbonyl)-phenyl]-amide]: the half-maximal inhibitory concentration (IC50) on Flt3 was not above 10 µM.

As for `CCCS(=O)(=O)Nc1ccc(F)c(C(=O)c2c[nH]c3ncc(OC)cc23)c1F` [Compound P-0806, Propane-1-sulfonic acid [2,4-difluoro-3-(5-methoxy-1H-pyrrolo[2,3-b]pyridine-3-carbonyl)-phenyl]-amide], the concentration for half-maximal inhibition (IC50) on Flt3 and at Hck was not above 10 µM each time.

As to `CCCC(=O)Nc1ccc(F)c(Cc2c[nH]c3ncc(-c4cccnc4)cc23)c1F` [Compound P-1280], at Flt3, the IC50 is not above 10 µM.

With `CCCCNC(=O)Nc1ccc(F)c(C(=O)c2c[nH]c3ncc(-c4cccnc4)cc23)c1F` [Compound P-1318, 1-Butyl-3-[2,4-difluoro-3-(5-pyridin-3-yl-1H-pyrrolo[2,3-b]pyridine-3-carbonyl)-phenyl]-urea], the 50% inhibitory concentration (IC50) at Flt3 and at Hck was not above 10 µM each time.

In the case of `COc1cccc(C(=O)c2c[nH]c3ncc(-c4cccc(NC(C)=O)c4)cc23)c1F` [Compound P-1336, N-{3-[3-(2-Fluoro-3-methoxy-benzoyl)-1H-pyrrolo[2,3-b]pyridin-5-yl]-phenyl}-acetamide], the IC50 on Flt3, at Hck and at IGF1R was not above 10 µM in each case.

Turning to `COc1cc(OC)cc(C(=O)c2c[nH]c3ncc(-c4cccc(NS(C)(=O)=O)c4)cc23)c1` [Compound P-1426, N-{3-[3-(3,5-Dimethoxy-benzoyl)-1H-pyrrolo[2,3-b]pyridin-5-yl]-phenyl}-methanesulfonamide], the concentration for half-maximal inhibition (IC50) at Flt3 and on Hck was not above 10 µM each time.
